From patent US11324798B2, “Materials and methods for treatment of inflammation” (CYTOGEL PHARMA, LLC, priority 2010, dated 2022) come the findings set out here.

This test relates to mustard oil-induced acute neurogenic inflammation in the mouse ear. The experiment in a line: 5% mustard oil-induced acute neurogenic ear swelling of the mouse, micrometry (Example 2). It is filed as in vivo. Particulars: for AUC of time course of percentage ear swelling: 3 h, control 55.29±4.91. Here is the method: For the in vivo rat and mouse experiments, 5.5 ml of the 1 mg/ml stock solution of CYT-1010 was prepared freshly every experimental day with 20% HPCD dissolved in sterile distilled water. […] The vehicle was 20% HPCD dissolved in sterile distilled water. Further dilutions of the compound for the smaller administered doses were made with this vehicle, the 500 μg/ml and 100 μg/ml concentrations looked opalescent and the lower concentrations were clear. In rats 0.1 ml/100 g, in mice 0.1 ml/10 g volumes were administered i.v. 10 min before the induction of the inflammation.
Mice were anaesthesized with urethane (1.2 g/kg i.p.) to achieve a long-lasting deep anaesthesia and minimize respiratory depression. Ten μl of 5% mustard oil dissolved in paraffin oil was smeared on both sides of both ears. Mustard oil in this concentration selectively activates Transient Receptor Potential A1 (TRPA1) on capsaicin-sensitive peptidergic sensory nerves and induces the release of sensory neuropeptides. The released CGRP and substance P (SP) in the innervated area evoke vasodilatation and plasma protein extravasation, collectively called as acute neurogenic inflammation.
CYT-1010 (1, 10, 100, 500 and 1000 μg/kg; 0.1 ml/10 g from the 0.1, 1, 10, 50 and 100 μg/ml solutions) was administered i.v. 5 min before the induction of the inflammation by mustard oil smearing. Mice in the control group were treated with the same volume of the vehicle, 20% hydroxypropyl-β-cyclodextrin dissolved in sterile distilled water. The experimental protocol is also illustrated in FIG. 1.
There were 8 mice in each CYT-1010-treated experimental group, and 9 in the vehicle-treated control group. 49 male CD1 mice (25-35 g) altogether were divided into 6 experimental groups: Group 1: vehicle-treated controls (n=9); Group 2: 1 μg/kg CYT-1010 (n=8); Group 3: 10 μg/kg CYT-1010 (n=8); Group 4: 100 μg/kg CYT-1010 (n=8); Group 5: 500 μg/kg CYT-1010 (n=8); and Group 6: 1000 μg/kg CYT-1010 (n=8).
This study was undertaken in blocks with 12-13 mice per occasion. The whole set of data was obtained during 4 days. There were 2 or 3 solvent-treated rats every day and the remaining 12 animals were randomised to receive each treatment.
The diameter of the ear was measured with an engineers' micrometer before the treatment and 4 times during the 3 h-examination period (20 min, 1 h, 2 h and 3 h). Oedema was expressed in % compared to the initial control values (Banvolgyi et al., 2004, 2005; Borzsei et al., 2008). Each of these publications is incorporated herein by reference in its entirety.
Results are expressed as the mean±s.e.m. and analyzed for statistical significance with one-way ANOVA followed by Dunnett post-hoc test when the data were compared to the control group. In the rat in vivo studies, multiple comparisons were also made with Bonferroni's modified t-test to compare the effects of the different doses to each other. *p<0.05 was considered to be significant.

Structures are written as SMILES.

As to `NC(Cc1ccc(O)cc1)C(=O)NC1CCCCNC(=O)C(Cc2ccccc2)NC(=O)C(Cc2c[nH]c3ccccc23)NC1=O` [CYT-1010, H-Tyr-c-[D-Lys-Trp-Phe]], the “AUC of time course of percentage ear swelling” value reads like this: (1 μg/kg i.v., P<0.05) 28.99±4.60 units; (10 μg/kg i.v., P<0.01) 28.15±3.42 units; (100 μg/kg i.v., P<0.01) 26.55±5.51 units; (500 μg/kg i.v., NS) 52.24±9.70 units; (1000 μg/kg i.v., NS) 37.25±5.72 units. Besides, the “Effect on mustard oil-induced acute neurogenic ear swelling” value (1 μg/kg, 10 μg/kg and 100 μg/kg i.v.) was “significantly reduced”. In addition, the “Effect on mustard oil-induced ear swelling” value by setting is: (1, 10 and 100 μg/kg i.v., at 1 hour) “significant anti-edema action”; (500 and 1000 μg/kg i.v.) “did not influence ear swelling”. In addition, the “Significant inhibition of mustard oil-induced ear swelling” value (1-1000 μg/kg i.v., 20 minutes post induction) is recorded as “none of the examined CYT-1010 doses”. The “Anti-edema effect on the mouse ear” value (1-1000 μg/kg i.v., throughout a 3-h period) was “significant anti-edema effect”. In addition, the “Inhibitory action on ear swelling” value (10 and 100 μg/kg i.v., both later time points (2 h, 3 h)) is “statistically significant”.
